Experimental data taken from patent publication US10208010B2, “Crystal of a heterocyclidene acetamide derivative” (MOCHIDA PHARMACEUTICAL CO., LTD., priority 2017, dated 2019).

How the values were obtained:
[1] = Photostability test in accordance with ICH Q1B; type: physicochemical; settings: for Stability with respect to light: summary in words of Table 10
Protocol: (Experimental Example 4) Photostability Test
After completion of the test, each sample was removed, its chemical purity was measured by high performance liquid chromatography, and the crystal form was confirmed by x-ray powder analysis.

[2] = Storage stability test (powder stability); type: physicochemical
Protocol: (Experimental Example 2) Storage Stability Test
(§1) After the end of the storage period, the samples were removed, their chemical purities were measured by high performance liquid chromatography, and the crystal forms were confirmed by x-ray powder analysis.

[3] = Solvent suspension test of crystal form mixture; type: physicochemical; settings: 25° C.
Source text: (Experimental Example 1) Solvent Suspension Test of Crystal Form Mixture

[4] = Long-term storage stability test (powder stability); type: physicochemical
Protocol: (Experimental Example 3) Long-Term Storage Stability Test
as §1

human TRPV1 = target: T1, human TRPV1 (Homo sapiens, UniProt Q8NER1); assay: Measurement of capsaicin-induced Ca influx in human TRPV1-transformed CHO cell line; type: cell-based; settings: concentration shifting the capsaicin concentration reaction curve to the right by two times; hTRPV1-CHO cells, FDSS-6000
T1 construct: expressed in transfected cells
T1 sequence (Q8NER1 whole entry): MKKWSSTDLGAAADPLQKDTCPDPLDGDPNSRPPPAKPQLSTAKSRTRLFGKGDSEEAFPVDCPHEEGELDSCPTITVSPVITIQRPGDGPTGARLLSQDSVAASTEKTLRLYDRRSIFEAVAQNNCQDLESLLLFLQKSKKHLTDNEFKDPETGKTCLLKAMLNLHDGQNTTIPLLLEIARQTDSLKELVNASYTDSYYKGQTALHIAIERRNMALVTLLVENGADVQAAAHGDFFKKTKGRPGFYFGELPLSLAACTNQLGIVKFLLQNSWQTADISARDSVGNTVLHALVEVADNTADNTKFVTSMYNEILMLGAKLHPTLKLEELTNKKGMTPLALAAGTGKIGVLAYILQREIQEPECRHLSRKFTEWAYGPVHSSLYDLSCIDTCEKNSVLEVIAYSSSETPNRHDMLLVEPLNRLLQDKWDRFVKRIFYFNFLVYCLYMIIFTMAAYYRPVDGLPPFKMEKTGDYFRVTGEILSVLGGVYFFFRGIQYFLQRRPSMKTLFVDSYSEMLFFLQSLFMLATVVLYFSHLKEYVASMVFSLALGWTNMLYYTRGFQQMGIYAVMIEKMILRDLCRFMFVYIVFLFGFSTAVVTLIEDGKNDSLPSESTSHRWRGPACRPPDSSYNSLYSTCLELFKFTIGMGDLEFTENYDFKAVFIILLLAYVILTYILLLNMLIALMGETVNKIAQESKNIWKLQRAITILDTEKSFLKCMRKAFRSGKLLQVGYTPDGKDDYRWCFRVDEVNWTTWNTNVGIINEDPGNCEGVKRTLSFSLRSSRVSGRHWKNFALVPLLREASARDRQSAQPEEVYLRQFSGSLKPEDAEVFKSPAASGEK
Source text: (1) Establishment of Human TRPV1-Transformed CHO Cell Line
Human vanilloid receptor 1 (hTRPV1) cDNA was cloned from a human brain. The cloned hTRPV1 cDNA was inserted into a pCAGGS vector, which was then genetically introduced into a CHO-K1 cell line to transform the cells. Clones obtained by limiting dilution were stimulated with capsaicin, and clones with a high responsiveness were selected based on increased Ca concentration. The selected clones were then used for the following experiment.
(2) Measurement of Ca Influx Using FDSS-6000
Human TRPV1-transformed CHO cells were seeded at a density of 40,000 cells per well on a 96-well plate (black walls, transparent bottom/manufactured by Greiner Bio-One International GmbH). […] Changes in intracellular Ca concentration were measured for 3 minutes after capsaicin stimulus (1 nmol/L to 1 μmol/L) with an FDSS-6000 (λex: 480 nm, λem: 540 nm, Hamamatsu Photonics K.K.). The integral values of the respective intracellular Ca concentration increase rates in the medium group and the group treated with the crystal of the invention were calculated, and capsaicin concentration reaction curves were prepared.

[5] = 1ICH (10-day test; 1.2 million lux hours and 200 watt hours/m^2 or more at 25° C.)
[6] = 25° C./60% RH, 6 months, sealed
[7] = 25° C./60% RH, 13 months, sealed
[8] = 25° C./60% RH, 24 months, sealed
[9] = 25° C./60% RH, 36 months, sealed
[10] = 25° C./60% RH, 48 months, sealed

With `O=C(/C=C1\CCOc2cc(C(F)(F)F)ccc21)Nc1cccc2c1C[C@H](O)CC2` [Type II crystal, (E)-2-(7-trifluoromethyl-chroman-4-ylidene)-N-((7R)-7-hydroxy-5,6,7,8-tetrahydronaphthalen-1-yl)acetamide] the “Chemical purity (%)” value [1, 5] was 98.2%, the Crystal form [1, 5] was “Type II crystal” and the “Chemical purity (%)” value ([1]; Before test) was over 99.9%. The Crystal form ([1]; Before test) was “Type II crystal”, the “Stability with respect to light” value [1] was “unstable with respect to light” and the “Chemical purity (%)” value ([2]; 25° C./60% RH, 1 month, sealed) was over 99.9%. For the same compound, the Crystal form ([2]; 25° C./60% RH, 1 month, sealed) was “Type II”, the “Chemical purity (%)” value ([2]; 40° C./75% RH, 1 month, sealed) was over 99.9% and the Crystal form ([2]; 40° C./75% RH, 1 month, sealed) was “Type II”. For the same compound, the “Chemical purity (%)” value ([2]; 60° C., 1 month, sealed) was over 99.9%, the Crystal form ([2]; 60° C., 1 month, sealed) was “Type II” and the “Chemical purity (%)” value ([2]; Before test) was over 99.9%. For the same compound, the Crystal form ([2]; Before test) was “Type II”.

For `O=C(/C=C1\CCOc2cc(C(F)(F)F)ccc21)Nc1cccc2c1C[C@H](O)CC2` [Type I crystal, (E)-2-(7-trifluoromethyl-chroman-4-ylidene)-N-((7R)-7-hydroxy-5,6,7,8-tetrahydronaphthalen-1-yl)acetamide], the “Chemical purity (%)” value [1, 5] was over 99.9%, the Crystal form [1, 5] was “Type I crystal” and the “Chemical purity (%)” value ([1]; Before test) was over 99.9%. The Crystal form ([1]; Before test) was “Type I crystal”, the “Stability with respect to light” value [1] was “extremely high chemical and physical stability” and the “Thermodynamic stability in suspension” value [3] was “thermodynamically stable in suspension”. The “Chemical purity (%)” value ([2]; 25° C./60% RH, 1 month, sealed) was over 99.9%, the Crystal form ([2]; 25° C./60% RH, 1 month, sealed) was “Type I” and the “Chemical purity (%)” value ([2]; 40° C./75% RH, 1 month, sealed) was over 99.9%. For the same compound, the Crystal form ([2]; 40° C./75% RH, 1 month, sealed) was “Type I”, the “Chemical purity (%)” value ([2]; 60° C., 1 month, sealed) was over 99.9% and the Crystal form ([2]; 60° C., 1 month, sealed) was “Type I”. The “Chemical purity (%)” value ([2]; Before test) was over 99.9%, the Crystal form ([2]; Before test) was “Type I” and the “Chemical purity (%)” value ([4]; 25° C./60% RH, 3 months, sealed) was over 99.9%. The “Chemical purity (%)” value [4, 6] was over 99.9%, the Crystal form [4, 6] was “Type I” and the “Chemical purity (%)” value [4, 7] was over 99.9%. The Crystal form [4, 7] was “Type I”, the “Chemical purity (%)” value [4, 8] was over 99.9% and the Crystal form [4, 8] was “Type I”. The “Chemical purity (%)” value [4, 9] was over 99.9%, the Crystal form [4, 9] was “Type I” and the “Chemical purity (%)” value [4, 10] was over 99.9%. For the same compound, the Crystal form [4, 10] was “Type I”, the “Chemical purity (%)” value ([4]; Before test) was over 99.9% and the Crystal form ([4]; Before test) was “Type I”. The Moisture absorption ([4]; during the test periods of Experimental Examples 2 and 3) was “no moisture absorption” and the “Chemical and physical stability” value ([4]; test periods of Experimental Examples 2 and 3) was “chemically and physically stable throughout the test period”.

In the case of `O=C(/C=C1\CCOc2cc(C(F)(F)F)ccc21)Nc1cccc2c1C[C@H](O)CC2` [Compound (1), (E)-2-(7-trifluoromethyl-chroman-4-ylidene)-N-((7R)-7-hydroxy-5,6,7,8-tetrahydronaphthalen-1-yl)acetamide], the A2 value (human TRPV1) is reported as “A (A less than 100 nmol/L)”.
